# Data as given in patent US9730906B2, “α-derivatives of cis-monounsaturated fatty acids for use as medicines” (UNIVERSITAT DE LES ILLES BALEARS, priority 2008, dated 2017).
# Legend:
# [1] = Rat obesity induced by cafeteria diet, preventative pre-treatment (Table 3); format: in vivo, Wistar Kyoto rats; details: 300 mg/kg oral, after two weeks on cafeteria diet; obese control 308 ± 17, lean control 280 ± 16; * lower than obese controls, ‡ indistinguishable
# Experimental: In a further experiment, the effect of various molecules at a single dose (600 mg/kg) was investigated. […] In this sense, modification on the α-carbon and the double bond in cis configuration are crucial elements for producing the therapeutic effect indicated above. […] Finally, the effect of α-derivatives of cis-monounsaturated fatty acids on the prevention of obesity was investigated. For this, a model of rat obesity induced by a cafeteria diet, where the hypercaloric food increases the weight of the animals very markedly, was used. There were various experimental groups (see Table 3), each of which consisted of 6 female Wistar Kyoto rats of 250-300 g in weight. All the animals received a standard diet for 2 weeks. In addition, 2 of the groups received an oral preventative pre-treatment of vehicle and the other groups received 300 mg/kg of the fatty acids indicated below. Afterwards, one of the control groups was maintained on a standard diet (lean control) and the other was fed on a cafeteria diet (obese control). The treated animal groups were fed on the cafeteria diet. Preventative pre-treatment was maintained for all the groups. After two weeks on these diets, the lean control group had increased their body weight by an average of 16±16 g, while the obese control group had increased their body weight by an average of 43±17 g (statistically significance difference, p<0.01).
# The weight of treated animals was statistically less than the weight of obese control rats and statistically indistinguishable from that of lean control rats.
# [2] = molecular target: T1, cyclooxygenases-1 (COX-1) (Homo sapiens, UniProt P23219); experiment: COX-1 activity in U937 differentiated monocytes (Cayman COX-1 inhibitor screening system); format: cell-based; details: 250 μM, 6 hours; compared with fatty acids not of Formula I, p<0.05
# T1 construct: endogenous in cells; host or cells: U937 differentiated monocytes
# T1 sequence (P23219 24-599): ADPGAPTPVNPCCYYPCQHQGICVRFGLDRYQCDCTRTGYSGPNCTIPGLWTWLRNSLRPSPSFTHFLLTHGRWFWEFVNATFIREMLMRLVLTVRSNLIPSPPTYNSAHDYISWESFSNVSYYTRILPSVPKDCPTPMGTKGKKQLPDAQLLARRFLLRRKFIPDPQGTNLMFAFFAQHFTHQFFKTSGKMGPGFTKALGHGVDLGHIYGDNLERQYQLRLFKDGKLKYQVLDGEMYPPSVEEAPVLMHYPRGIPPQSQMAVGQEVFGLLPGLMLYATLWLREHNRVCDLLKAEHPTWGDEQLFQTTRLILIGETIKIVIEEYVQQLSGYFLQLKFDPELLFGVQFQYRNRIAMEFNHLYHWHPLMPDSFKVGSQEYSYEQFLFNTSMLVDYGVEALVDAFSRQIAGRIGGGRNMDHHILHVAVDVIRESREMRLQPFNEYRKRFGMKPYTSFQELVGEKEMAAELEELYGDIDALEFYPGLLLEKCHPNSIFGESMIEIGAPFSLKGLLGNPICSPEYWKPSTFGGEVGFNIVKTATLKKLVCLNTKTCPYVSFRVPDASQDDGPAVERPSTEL
# Experimental: FIG. 19A. Effect of various fatty acids in the inhibition of the activity of cyclooxygenases-1 (COX-1) (Cayman COX-1 inhibitor screening system). […] Cell cultures (U937 differentiated monocytes) were treated with the fatty acids of the invention (250 μM, 6 hours).
# (§1) In an additional study on the release of various proinflammatory cytokines (IL-1b, IL-6, IL-8, IL-10) and TNF-α in U937 monocytes stimulated with bacterial lipopolysaccharide (LPS), a marked reduction in the levels of these molecules was observed after treatments with OHHD at a concentration of 250 μM and 72 h incubation (Table 4). The effect of the α-derivatives of cis-monounsaturated fatty acids (250 μM, 6 h) on the activity and expression of the COX-1 and COX-2 cyclooxygenases was investigated in the same system.
# [3] = test system: A549 cells of human lung adenocarcinoma; experiment: Prevention of tumour development in nude mice injected with A549 cells; format: in vivo; details: 400 mg/kg per day oral, 2 weeks before and one month after A549 injection, compared with fatty acids not of Formula I, p<0.05
# Source text: FIG. 2. Preventative effect of various fatty acids against tumour development. […] Animals received treatment before injection of tumour cells and the treatment was subsequently maintained. Animals of the control group were not treated and the volume of their tumours was taken as the reference value (100%).
# To determine whether the fatty acids of the invention have applications in the prevention of the development of tumour processes, an animal cancer model was used. This model consisted of immune-deprived animals ([Crl:Nu(Ico)-Fox 1] nude mice in which non-microcytic human lung cancer cells were injected (5×10^6 A549 cells per animal). The control group (infected with cancer cells but untreated) started to develop tumours that were visible after a few days. The sizes of the tumours were measured for the first time at 10 days after implanting the tumour and measurements continued for up to 31 days after the implantation with a digital calliper. The volume of the tumours was calculated with the following equation: v=w^2×l/2 where v is the volume of the tumour, w is its width and l is the length. Preventative treatments against development of the cancer were applied. To carry out these treatments, 400 mg/kg were administered per day for 2 weeks before the injection of tumour cells. This treatment was continued for one month after the implantation of the tumour cells and the volume of the tumours in the animals was measured. Each experimental group was composed of 8 animals. Oral administration of α-derivatives of cis-monounsaturated fatty acids prevented cancer development (A549 cells of human lung adenocarcinoma) (FIG. 2). […] Therefore it was concluded that the introduction of a double bond in the cis configuration in the structure of the fatty acid is a critical factor in the prevention and treatment by fatty acids of cancer development.
# [4] = test system: cyclooxygenase-2 (COX-2); experiment: Cellular concentration of COX-2 in U937 differentiated monocytes (immunoblot); format: cell-based, human; details: 250 μM, 6 hours; compared with fatty acids not of Formula I, p<0.05
# Experimental: FIG. 19B. Effect of various fatty acids in the inhibition (concentration of protein) of cyclooxygenase-2 (immunoblot of COX-2). […] Cell cultures (U937 differentiated monocytes) were treated with the fatty acids of the invention (250 μM, 6 hours).
# as §1
# [5] = test system: A549 cells; experiment: Growth/viability of A549 lung cancer cells in culture (cell count); format: cell-based, human; details: Doses of 200 to 400 μM, A549
# Experimental: FIG. 3A. Cancer cells (A549) were treated with various concentrations of OHOD and MOD11 to determine whether the effect was dependent on the concentration. […] These cells were treated with different concentrations (0-400 μM) of OHOD and MOD11 and the number of cells was determined by flow cytometry.
# FIG. 3B. Cancer cells (A549) were treated with compounds indicated on the horizontal axis for 48 hours at 150 μM. Then, the cells were counted and their number and percent of untreated (control) represented on the vertical axis.
# Also, a series of α-derivatives of cis-monounsaturated fatty acids were used to investigate their effectiveness in cancer treatment. Two types of experiment were performed. Firstly, the dependency of the anti-tumour effect on concentration was investigated. To perform these experiments, human lung cancer cells (A549) were cultivated in RPMI medium, supplemented with 10% foetal bovine […], 10 mM Hepes (pH 7.4), 2 mM glutamine, 2 g/l bicarbonate, 1 g/l glucose, 100 units/ml penicillin, 0.1 mg/ml streptomycin, 0.25 μg/ml Amphotericin B, at 37° C. and in the presence of 5% CO2. In a first experimental series, these cells were treated with various concentrations (0-400 μM) of OHOD and MOD11 and the number of cells was determined by flow cytometry (FIG. 3A). […] In a second series, the anti-tumour effectiveness on A549 lung cancer cells was investigated at a single concentration (150 μM) and a time of 48 hours (FIG. 3B). […] Obviously, among the previous molecules, some lacked both modifications on the α-carbon and the double bond in cis configuration (EO, HDO, ODO) and had no therapeutic effect. […]
inhibition of COX-1 activity (% of control) [2],cellular concentration of COX-2 (% of control) [4],Structure (SMILES),Final weight [1],tumour volume (prevention of tumour development) [3],effect on tumour cells at 200 to 400 μM [5]
more significant effect,more significant effect,"CCCCCCCC/C=C\CCCCCCC(N)C(=O)O (stereo not drawn) [AOD, α-Amino-cis-Δ9-octadecenoic]",272 ± 15* g,more significant effect,
more significant effect,more significant effect,"CCCCCCCC/C=C\CCCCCCC(F)C(=O)O (stereo not drawn) [FOD, α-Fluoro-cis-Δ9-octadecenoic]",279 ± 13* g,more significant effect,
more significant effect,more significant effect,"CCCCCC/C=C\CCCCCCCCC(C)C(=O)O (stereo not drawn) [MOD11, α-Methyl-cis-Δ11-octadecenoic]",274 ± 18* g,more significant effect,total elimination of tumour cells
more significant effect,more significant effect,"CCCCCCCC/C=C\CCCCCCC(C)C(=O)O (stereo not drawn) [MOD, α-Methyl-cis-Δ9-octadecenoic]",268 ± 12* g,more significant effect,
more significant effect,more significant effect,"CCCCCCCC/C=C\CCCCCCCCCCC(O)C(=O)O (stereo not drawn) [OHDE, α-Hydroxy-cis-Δ13-docosenoic]",273 ± 15* g,more significant effect,
more significant effect,more significant effect,"CCCCCCCC/C=C\CCCCCCCCC(O)C(=O)O (stereo not drawn) [OHEE, α-Hydroxy-cis-Δ11-eicosenoic]",264 ± 11* g,more significant effect,
more significant effect,more significant effect,"CCCCCC/C=C\CCCCCCCCC(O)C(=O)O (stereo not drawn) [OHOD11, α-Hydroxy-cis-Δ11-octadecenoic]",269 ± 12* g,more significant effect,
more significant effect,more significant effect,"CCCCCCC/C=C\CCCCCCCC(S)C(=O)O (stereo not drawn) [SHOD, α-Mercapto-cis-Δ10-octadecenoic]",269 ± 16* g,more significant effect,
more significant effect,more significant effect,"CCCCCCCC/C=C\CCCCCCC(C(=O)O)C(F)(F)F (stereo not drawn) [TFMOD, α-Trifluoromethyl-cis-Δ9-octadecenoic]",278 ± 14* g,more significant effect,
